Source: patent US20080241194A1, “COMPOSITIONS AND METHODS FOR PROTECTING ORGANS, TISSUE AND CELLS FROM IMMUNE SYSTEM-MEDIATED DAMAGE” (THE BOARD OF TRUSTEES OF THE LELAND STANFORD JUNIOR …, priority 1998, published 2008)
Ends that are not written are not given here.

Experiments:
OCI-Ly8 tumor cell = experiment: ^51Cr release CIK cytotoxicity assay, tumor targets; type: cell-based, human; settings: peptide 10 μM, E:T 20:1
Protocol: (§1) Target cells were metabolically labelled with ^51Cr (Dupont—New England Nuclear, Boston, Mass.) by incubating 1×10^6 cells in […] ^51Cr at 37° C. for 1-1.5 hours. The labelled cells were washed three times with phosphate buffered saline (PBS) containing 0.1% bovine serum albumin. The labelled cells were distributed in flat-bottomed 96 well microtiter plates at a concentration of 2×10^4 cells/well in triplicate. Effector (CIK) cells were added at the indicated ratios. Mabs were added prior to the addition of effector cells, and incubated for 15-30 minutes at room temperature. The final volume of the assay mixture in each well was 0.2 ml. After 4 hours at 37° C., the cells were collected by centrifugation and an aliquot of the supernatant was counted in a gamma counter (Micromedic Systems, Horsham, Pa.). The percentage of specific ^51Cr release was calculated according to the following equation: […]
Spontaneous release was obtained by incubating the labelled cells in complete medium alone and maximal release by treatment of the cells with 1% NP-40. […]

[1] = Solubility of synthesized peptide; type: physicochemical; settings: used in PBS and RPMI 1640
Protocol: A hydrophilic 9 mer peptide of the sequence […] (SEQ ID NO:3) which corresponds to the region of shared homology of Hsp47 with HLA-A2 was synthesized by the Stanford PAN facility on a BioApplied® peptide synthesizer, HPLC purified and verified by amino acid sequencing. Pure peptide was lyophilized and stored at −20° C.

Balb/c mice = experiment: Murine GvHD model, bone marrow transplant; type: in vivo, mouse; settings: for protection from GvHD: 300 μg Hsp47-Gst protein with graft cells, single injection day 0, monitored 4 weeks, 5 animals
Protocol: Male Balb/c mice were twice irradiated with 500 Rads prior to transplantation. Bone marrow (BM) and spleen derived stem cells were obtained from B10D2 (H-2^d background) mice. 2.5×10^6 BM and 1×10^6 spleen cells were pooled as a graft source for each recipient male Balb/c animal. This non-enriched stem cell population of cells were either suspended in RPMI containing 300 μg Hsp47-Gst protein in 300 μl total volume, or, in buffer containing 100 μg of Gst control protein alone. Cells and protein were given in a single injection on day 0. No other immunosuppressive treatments were given. Animals were monitored for 4 weeks after the bone marrow transplant.

HUVEC = experiment: ^51Cr release CIK cytotoxicity assay, endothelial cell targets pre-treated with BFA, protein or peptide; type: cell-based, human
Protocol: as §1
Spontaneous release was obtained by incubating the labelled cells in complete medium alone and maximal release by treatment of the cells with 1% NP-40.
For brefeldin A (BFA) treatment, freshly confluent HUVEC monolayers, nonadherent target cells or CIK cells at 0.5-2×10^6 cells per ml were incubated with medium supplemented with 0.5-10 μg of brefeldin A (B6hringer Mannheim GmbH, Mannheim, Germany) per ml medium and incubated for 2-6 hours in a humidified incubator with 5% carbon dioxide at 37° C. BFA was dissolved at 100 μg per ml in 70% ethanol and used fresh or stored up to 4 weeks at −20° C. Prior to cytotoxicity assay the cells were rinsed three times with PBS, and fresh medium not containing BFA was added for the remainder of the assay (FIG. 4).
Both HUVEC and OCI-Ly8 cells were incubated with BFA at concentrations of 0, 2.5, 5, 7.5 and 10 μM for 6 hours as described above, washed, labeled with ^51Cr and used in a cytotoxicity assay with d21 CIK cells at an E:T ratio of 20:1. Preincubation of EC targets with 2.5 μM BFA reduced CIK mediated cytotoxicity by 40%.
Subsequent to ^51Cr labeling but prior to addition of effector cells 10-200 μg FPLC purified Hsp47 (Example 7) protein or 10 nM to 10 μM HPLC purified peptide […] (SEQ ID NO:3) (Example 8), both in sterile PBS at pH 7.4 and diluted to the final concentration with RPMI, were added to targets per ml of medium and incubated for 30 minutes at 37° C. in a humidified atmosphere of 5% CO2. In assays using purified protein, targets were subjected to three subsequent washes with 10 volumes of Ca^2+, Mg^2+ and 5% FCS containing PBS prior to providing fresh standard culture medium to the target cells. In assays using purified peptide, the added peptide was present for the entire assay. The remainder of the assay was performed as detailed above, at 37° C. in a humidified atmosphere of 5% CO2.

granzyme A = target: T1, granzyme A (Homo sapiens, UniProt P12544); experiment: BLT esterase or SDS-PAGE gelshift assays with granzymes; type: biochemical; settings: data not shown
T1 sequence (P12544 29-262): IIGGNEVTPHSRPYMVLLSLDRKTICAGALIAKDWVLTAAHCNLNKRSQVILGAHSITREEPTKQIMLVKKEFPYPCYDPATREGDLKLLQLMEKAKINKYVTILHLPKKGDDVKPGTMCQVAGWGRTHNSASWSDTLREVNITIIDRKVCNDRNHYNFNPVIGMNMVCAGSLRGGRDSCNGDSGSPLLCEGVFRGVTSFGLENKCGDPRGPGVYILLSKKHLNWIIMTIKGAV
Text: By sequence homology, Hsp47 is a serine protease inhibitor with theoretical specificity for lysine at the active site of incoming serine proteases. Serpins act as “bait” representing cleavable substrates which form a stable instead of a transitory covalent bond with the active center of serine proteases. […] Thus, serpins inactivate serine proteases in a stoichiometric ratio of 1:1. Despite the sequence relationship, no substrate serine protease has so far been identified for Hsp47. Some authors expect the serpin-domain to be nonfunctional because its “active site” amino acids are modified (Hirayoshi et al., Mol Cell Biol 11:4036-4044 (1991)). […] In ^51Cr-release assays, deletion of the serpin domain led to loss of function of the affected truncation mutants. However, as further deletions of the gene re-established full function to the smaller truncated Hsp47 mutants, expressing then little more than the H1,A-A2-consensus region discussed below, we assume that the loss of function of the C-terminal truncation of Hsp47's serpin domain causes a conformational change in the protein which normalizes with further truncation. […]

mature d21 CIK = experiment: FACS analysis of mature d21 CIK with eGFP-tagged huHsp47 probe; type: binding, human; settings: 10 μg eGFP-huHsp47 per ml, PE-CD56 co-staining
Protocol: For Fluorescence Activated Cell Sorting (FACS) 10^6 effector or target cells were washed twice with Ca^2+, Mg^2+ and 5% FCS containing PBS buffer, suspended in 50 μl of this buffer and placed at 0-4° C. in the dark. 1 μg of FITC-, PE-, Per-CP or TriColor labelled monoclonal antibody (Beckton Dickinson, San Jose, Calif.) per staining reaction of 10^6 cells was mixed with the cells and incubated for 15 to 30 minutes at 0-4° C. in the dark. Stained cells were subjected to three subsequent washes with 10 volumes of Ca^2+, Mg^2+ and 5% FCS containing PBS and taken up in 500 μl of this buffer for analysis or sort by FACScan/FACStar (Beckton Dickinson, San Jose, Calif.) with excitation at 488 nm and the appropriate channel filters for detection of emission.
The huHsp47δRDEL-enhanced green fluorescent protein (eGFP) fusion protein, expressed under the control of the CMV IE promoter, was isolated as described above and used as a FACS probe to search for huHsp47 cell surface binding proteins. […]
eGFP-tagged Hsp47 FACS probe was generated through additional genetic engineering (FIG. 8A) (SEQ ID NOS: 15-18). […] FACS analysis of mature d21 CIK with eGFP-tagged HuHsp47 as FACS probe for the FITC channel, with CE56-PE co-staining, is based on differences in the Hsp47 binding ability of the analyzed CIK. […]

major serine proteases = settings: Davids et al. 1995; cited from earlier work

AVLSAEQLR
reduction of specific target lysis, CIK-OCI-Ly8 tumor cell ^51Cr cytotoxicity assay (OCI-Ly8 tumor cell): less than 10% | solubility in aqueous solution [1]: soluble in aqueous solution

huHsp47-GST protein: fusion protein of human Hsp47 and N-terminally tagged glutathione-S-transferase, expressed in bacteria
protection from GvHD (Balb/c mice): none developed graft vs. host disease | protection from GvHD (Balb/c mice; listed as Hsp-Gst protein): protected from the onset of GvHD, fur ruffling, weight loss and death | opportunistic infection (Balb/c mice; full body irradiated mice, BMT, over the time period tested): none developed opportunistic infection | reduction of EC lysis (HUVEC; 1 μM huHsp47-GST protein): 50% | protection of EC by purified recombinant protein (HUVEC; dose response): protects EC in a dose responsive fashion | protection of EC from CIK mediated lysis (HUVEC; pre-incubation with 10 μM huHsp47-GST protein): completely protects | irreversible inhibition of granzymes (granzyme A): not able to demonstrate a function of Hsp47 as an irreversible inhibitor

B1: eGFP-huHsp47: huHsp47δRDEL-enhanced green fluorescent protein fusion protein used as FACS probe (protein)
chain: AEVKKPVEAAAPGTAEKLSSKATTLAEPSTGLAFSLYQAMAKDQAVENILVSPVVVASSLGLVSLGGKATTASQAKAVLSAEQLRDEEVHAGLGELLRSLSNSTARNVTWKLGSRLYGPSSVSFADDFVASSKQHYNCEHSKINFPDKRSALQSINEWAAQTTDGKLPEVTKDVESTDGALLVNAMFFKPHWDEKFHHKMVDNRGFMVTRSYTVGVTMMHRTGLYNYYDDEKEKLQLVEMPLAHKLSSLIILMPHHVEPLERLEKLLTKEQLKIWMGKMQKKAVAISLPKGVVEVTHDLQKHLAGLGLTEAIDKNKADLSRMSGKKDLYLASVFHATAFELDTDGNPFDQDIYGREELRSPKLFYADHPFIFLVRDTQSGSLLFIGRLVRLKGDKM
modifications: left off: large carriers
notes: huHsp47δRDEL-enhanced green fluorescent protein fusion protein used as FACS probe
CIK cells stained by eGFP-tagged Hsp47 probe (mature d21 CIK): 26%

B2: murine Hsp47: purified murine Hsp47 from cited work (protein, UniProt P19324 18-417, looked up)
Serpin H1: AEVKKPLEAAAPGTAEKLSSKATTLAERSTGLAFSLYQAMAKDQAVENILLSPLVVASSLGLVSLGGKATTASQAKAVLSAEKLRDEEVHTGLGELLRSLSNSTARNVTWKLGSRLYGPSSVSFADDFVRSSKQHYNCEHSKINFRDKRSALQSINEWASQTTDGKLPEVTKDVERTDGALLVNAMFFKPHWDEKFHHKMVDNRGFMVTRSYTVGVTMMHRTGLYNYYDDEKEKLQMVEMPLAHKLSSLIILMPHHVEPLERLEKLLTKEQLKAWMGKMQKKAVAISLPKGVVEVTHDLQKHLAGLGLTEAIDKNKADLSRMSGKKDLYLASVFHATAFEWDTEGNPFDQDIYGREELRSPKLFYADHPFIFLVRDNQSGSLLFIGRLVRPKGDKMRDEL
inhibition of major serine proteases (major serine proteases): failed to inhibit
